The target in the assay is Full length KDM2B (Homo sapiens (Human), UniProt Q8NHM5). The assay can be described thus: KDM2B TR-FRET assay for determining inhibitor IC50. Format: biochemical. To be noted: TR-FRET (HTRF), biotin-H3K36me2 peptide substrate, 2-OG 0.3 μM or 6 μM. The source says:
KDM2B TR-FRET Assay for Determining Inhibitor IC50
The KDM2B TR-FRET Assay described above represents an additional embodiment of the invention.
Sequence of Full length KDM2B (Q8NHM5 whole entry): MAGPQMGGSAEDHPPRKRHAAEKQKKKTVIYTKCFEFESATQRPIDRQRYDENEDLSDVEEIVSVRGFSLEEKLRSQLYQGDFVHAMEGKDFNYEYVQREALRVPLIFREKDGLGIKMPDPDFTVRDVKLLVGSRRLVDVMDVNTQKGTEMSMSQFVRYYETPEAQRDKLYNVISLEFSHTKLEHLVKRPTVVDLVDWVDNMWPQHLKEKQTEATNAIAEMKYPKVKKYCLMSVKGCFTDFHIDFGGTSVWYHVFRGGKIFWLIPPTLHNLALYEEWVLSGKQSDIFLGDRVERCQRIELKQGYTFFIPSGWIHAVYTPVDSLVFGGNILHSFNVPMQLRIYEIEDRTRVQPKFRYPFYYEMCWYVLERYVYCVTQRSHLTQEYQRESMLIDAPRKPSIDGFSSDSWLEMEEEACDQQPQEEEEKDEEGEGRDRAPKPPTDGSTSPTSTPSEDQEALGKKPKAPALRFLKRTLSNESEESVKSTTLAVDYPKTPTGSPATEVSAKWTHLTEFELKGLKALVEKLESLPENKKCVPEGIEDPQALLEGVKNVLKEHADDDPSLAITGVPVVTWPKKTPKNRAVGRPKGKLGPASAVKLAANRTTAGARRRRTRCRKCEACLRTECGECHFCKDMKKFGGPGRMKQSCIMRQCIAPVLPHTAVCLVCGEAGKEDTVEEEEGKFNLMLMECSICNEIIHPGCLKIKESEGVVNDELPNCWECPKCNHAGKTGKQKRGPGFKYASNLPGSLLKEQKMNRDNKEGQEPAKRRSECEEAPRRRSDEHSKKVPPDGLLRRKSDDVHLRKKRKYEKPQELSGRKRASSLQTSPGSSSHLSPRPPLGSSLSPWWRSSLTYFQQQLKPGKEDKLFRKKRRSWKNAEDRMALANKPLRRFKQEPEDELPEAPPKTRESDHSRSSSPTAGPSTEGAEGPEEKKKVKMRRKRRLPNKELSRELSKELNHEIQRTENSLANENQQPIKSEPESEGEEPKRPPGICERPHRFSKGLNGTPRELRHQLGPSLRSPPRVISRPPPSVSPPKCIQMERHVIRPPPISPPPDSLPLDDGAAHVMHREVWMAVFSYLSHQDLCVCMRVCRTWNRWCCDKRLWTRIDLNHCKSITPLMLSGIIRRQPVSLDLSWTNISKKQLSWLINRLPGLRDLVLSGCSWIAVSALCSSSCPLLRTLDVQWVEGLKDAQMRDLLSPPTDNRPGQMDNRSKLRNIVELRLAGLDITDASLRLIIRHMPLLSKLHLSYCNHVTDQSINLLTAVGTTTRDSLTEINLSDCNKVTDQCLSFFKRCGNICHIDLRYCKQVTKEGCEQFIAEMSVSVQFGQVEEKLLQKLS
With `O=C(c1cccc(Cl)c1)C1CCCN(C2CCCC2)C1` (centres unmarked) [Example 3, (3-chlorophenyl)-(1-cyclopentyl-3-piperidyl)methanone], the IC50 amounted to 23000 nM.

The molecule `O=C(c1ccc2ccccc2n1)C1CCCN(CC2CC2)C1` (single isomer, unassigned) [Example 117a, (1-(cyclopropylmethyl)piperidin-3-yl)(quinolin-2-yl)methanone] yielded an IC50 of 356 nM.

Regarding `O=C(c1ccc2ccccc2c1F)C1CCCN(CC2CC2)C1` (centres unmarked) [Example 128, (1-(cyclopropylmethyl)piperidin-3-yl)(1-fluoronaphthalen-2-yl)methanone], half-maximal inhibition (IC50) was put at 133 nM.

The molecule `COc1ccc(C(=O)C2CCCN(CC3CC3)C2)cc1` (single isomer, unassigned) [Example 110a, (1-(cyclopropylmethyl)piperidin-3-yl)(4-methoxyphenyl)methanone] had an IC50 of 2000 nM.

`CCCN1CCCC(C(=O)c2cccc(OC)c2)C1` (centres unmarked) [Example 98, (3-methoxyphenyl)-(1-propyl-3-piperidyl)methanone] returned an IC50 of 1600 nM.

For the molecule `C[C@H]1CCN(C2CCC2)C[C@@H]1C(=O)c1ccc2cc(C#N)ccc2c1` (stereo in doubt) [Example 161a, 6-(1-cyclobutyl-4-methylpiperidine-3-carbonyl)-2-naphthonitrile], the IC50 turned out to be 3000 nM.

In turn, `COc1ccc2cc(C(=O)C3CCCN(C4CCC4)C3)ccc2c1C` (centres unmarked) [Example 52, (1-cyclobutyl-3-piperidyl)-(6-methoxy-5-methyl-2-naphthyl)methanone] gave an IC50 of 39.4 nM.

The molecule `O=C(c1cccc(Cl)c1)[C@H]1CCCN(CC2CC2)C1` (stereo in doubt) [Example 118b, (3-chlorophenyl)(1-(cyclopropylmethyl)piperidin-3-yl)methanone] showed an IC50 of 661 nM.

Regarding `COc1ccc2cc(C(=O)C3CN(C4CCC4)CCN3Cc3ccc(C)cc3)ccc2c1` (centres unmarked) [Example 196, [4-cyclobutyl-1-(p-tolylmethyl)piperazin-2-yl]-(6-methoxy-2-naphthyl)methanone], the IC50 was found to be 138 nM.

For `O=C(c1ccc2cc(CO)ccc2c1)C1CCCN(C2CCC2)C1` (centres unmarked) [Example 153, (1-cyclobutylpiperidin-3-yl)(6-(hydroxymethyl)naphthalen-2-yl)methanone], half-maximal inhibition (IC50) was put at 409 nM. Against the preceding molecule, the IC50 is about 3-fold higher.

On to `CNC(=O)c1cc(C(=O)C2CCCN(CC3CC3)C2)cc2ccccc12` (centres unmarked) [Example 40, 3-[1-(cyclopropylmethyl)piperidine-3-carbonyl]-N-methyl-naphthalene-1-carboxamide], for which the IC50 came to 626 nM.

For `O=C(c1ccc2c(c1)CCCC2)C1CCCN(C2CCC2)C1` (centres unmarked) [Example 133, (1-cyclobutyl-3-piperidyl)-tetralin-6-yl-methanone], the IC50 is 103 nM.

As for `COc1cccc(C(=O)[C@H]2CCCN(CC3CC3)C2)c1` (stereo in doubt) [Example 109b, (1-(cyclopropylmethyl)piperidin-3-yl)(3-methoxyphenyl)methanone], the IC50 was determined as 1300 nM.

On to `COc1ccc2cc(C(=O)C3CN(CC4CC4)CCC3OC)ccc2c1` (single isomer, unassigned) [Example 146b, (1-(cyclopropylmethyl)-4-methoxypiperidin-3-yl)(6-methoxynaphthalen-2-yl)methanone], for which half-maximal inhibition (IC50) was put at 129 nM.

As to `COc1ccc2cc(C(=O)[C@H]3CCCN(C4CCC4)C3)ccc2c1CC#N` (stereo in doubt) [Example 179a, 2-(6-(1-cyclobutylpiperidine-3-carbonyl)-2-methoxynaphthalen-1-yl)acetonitrile], the IC50 turned out to be 5.65 nM.

On to `O=C(c1cc(CO)c2ccccc2c1)C1CCCN(C2CCC2)C1` (centres unmarked) [Example 58, (1-cyclobutyl-3-piperidyl)-[4-(hydroxymethyl)-2-naphthyl]methanone], for which the IC50 was found to be 47.6 nM.

As for `CCC1CCN(C2CC2)CC1C(=O)c1ccc2cc(OC)ccc2c1` (single isomer, unassigned) [Example 147a, (1-cyclopropyl-4-ethylpiperidin-3-yl)(6-methoxynaphthalen-2-yl)methanone], the IC50 came out at 2000 nM. Against the preceding molecule, the IC50 is about 42-fold higher.

Regarding `COc1cccc2cc(C(=O)[C@@H]3CN(CC4CC4)CC[C@@H]3C)ccc12` (single isomer, unassigned) [Example 136b, (1-(cyclopropylmethyl)-4-methylpiperidin-3-yl)(5-methoxynaphthalen-2-yl)methanone], the midpoint of inhibition, the IC50, lay at 1200 nM.

Take `COc1ccc2cc(C(=O)C3CN(C4CCC4)CCN3Cc3ccccc3)ccc2c1` (centres unmarked) [Example 191, (1-benzyl-4-cyclobutyl-piperazin-2-yl)-(6-methoxy-2-naphthyl)methanone]: half-maximal inhibition (IC50) required 102 nM.

`CCC[C@H]1CCN(C2CCC2)C[C@H]1C(=O)c1ccc2c(CC#N)c(OC)ccc2c1` (stereo in doubt) [Example 184b, 2-(6-(1-cyclobutyl-4-propylpiperidine-3-carbonyl)-2-methoxynaphthalen-1-yl)acetonitrile] came in with an IC50 of 1.41 nM. Compared with the last molecule, the IC50 is about 72-fold lower.

`COc1ccc2cc(C(=O)[C@H]3CN(C4CCC4)CC[C@H]3CC(C)C)ccc2c1CC#N` (stereo in doubt) [Example 185b, 2-(6-(1-cyclobutyl-4-isobutylpiperidine-3-carbonyl)-2-methoxynaphthalen-1-yl)acetonitrile] gave an IC50 of 2 nM.

As to `COc1cc2ccc(C(=O)C3CCCN(CC4CC4)C3)cc2cn1` (centres unmarked) [Example 121, (1-(cyclopropylmethyl)piperidin-3-yl)(3-methoxyisoquinolin-7-yl)methanone], it took 380 nM to reach half-maximal inhibition (IC50).

Molecule `CCC1CCN(C2CC2)CC1C(=O)c1ccc2cc(OC)ccc2c1` (single isomer, unassigned) [Example 147b, (1-cyclopropyl-4-ethylpiperidin-3-yl)(6-methoxynaphthalen-2-yl)methanone] came in with an IC50 of 4.9 nM.

The molecule `COc1ccc2cc(C(=O)C3CN(C4CCC4)CCN3Cc3cccc(C(F)(F)F)c3)ccc2c1` (centres unmarked) [Example 198, [4-cyclobutyl-1-[[3-(trifluoromethyl)phenyl]methyl]piperazin-2-yl]-(6-methoxy-2-naphthyl)methanone] yielded a half-inhibitory concentration (IC50) of 302 nM.

`C[C@@H]1CCN(C2CCC2)C[C@H]1C(=O)c1ccc2cc(C#N)ccc2c1` (stereo in doubt) [Example 161b, 6-(1-cyclobutyl-4-methylpiperidine-3-carbonyl)-2-naphthonitrile] displayed an IC50 of 12.3 nM.

For `COc1ccc2cc(C(=O)[C@H]3CCCN(CC4CC4)C3)ccc2c1` [Example 8, [(3S)-1-(cyclopropylmethyl)-3-piperidyl]-(6-methoxy-2-naphthyl)methanone], half-maximal inhibition (IC50) was put at 2700 nM.

`CCN1CCN(C2CCC2)CC1C(=O)c1ccc2cc(OC)ccc2c1` (centres unmarked) [Example 190] returned an IC50 of 979 nM.

In the case of `CC1CC1CN1CCCC(C(=O)c2ccc3cc(C#N)ccc3c2)C1` (centres unmarked) [Example 164, 6-(1-((2-methylcyclopropyl)methyl)piperidine-3-carbonyl)-2-naphthonitrile], the IC50 amounted to 436 nM. Compared with the last molecule, the IC50 is about 2.2-fold lower.

`NC(=O)c1cc(C(=O)C2CCCN(C3CCCC3)C2)cc2ccccc12` (centres unmarked) [Example 46, 3-(1-cyclopentylpiperidine-3-carbonyl)naphthalene-1-carboxamide] came in with an IC50 of 209 nM.

Consider `CC(O)c1cc(C(=O)C2CCCN(CC3CC3)C2)cc2ccccc12` (centres unmarked) [Example 67, [1-(cyclopropylmethyl)-3-piperidyl]-[4-(1-hydroxyethyl)-2-naphthyl]methanone], for which the IC50 turned out to be 148 nM.

`CCCN1CCCC(C(=O)c2ccc3c(cnn3C)c2)C1` (centres unmarked) [Example 94, (1-methylindazol-5-yl)-(1-propyl-3-piperidyl)methanone]: the IC50 stood at 122 nM.

As to `O=C(c1ccc2c(c1)CCCCC2)C1CCCN(C2CCC2)C1` (centres unmarked) [Example 132, (1-cyclobutylpiperidin-3-yl)(6,7,8,9-tetrahydro-5H-benzo[7]annulen-2-yl)methanoe], the IC50 worked out at 55.3 nM.

With `CC1CCN(CC2CC2)CC1C(=O)c1ccc2c(O)cccc2c1` (single isomer, unassigned) [Example 151b, (1-(cyclopropylmethyl)-4-methylpiperidin-3-yl)(5-hydroxynaphthalen-2-yl)methanone], the midpoint of inhibition, the IC50, lay at 39.5 nM.

Take `O=C(c1ccc(Oc2ccccc2)cc1)C1CCCN(CC2CC2)C1` (centres unmarked) [Example 23, [1-(cyclopropylmethyl)-3-piperidyl]-(4-phenoxyphenyl)methanone]: the IC50 was 2100 nM.

`Cc1noc2cc(C(=O)C3CCCN(CC4CC4)C3)ccc12` (centres unmarked) [Example 129, (1-(cyclopropylmethyl)piperidin-3-yl)(3-methylbenzo[d]isoxazol-6-yl)methanone] displayed an IC50 of 492 nM.

In turn, `Cc1c(C#N)ccc2cc(C(=O)C3CCCN(C4CCC4)C3)ccc12` (centres unmarked) [Example 72, 6-(1-cyclobutylpiperidine-3-carbonyl)-1-methyl-2-naphthonitrile] came in with an IC50 of 87.5 nM.

Molecule `COc1ccc2cc(C(=O)[C@@H]3CN(C4CCC4)CC[C@@H]3C(C)C)ccc2c1CC#N` (stereo in doubt) [Example 186a, 2-(6-(1-cyclobutyl-4-isopropylpiperidine-3-carbonyl)-2-methoxynaphthalen-1-yl)acetonitrile] returned an IC50 of 70.1 nM.

`COc1ccc2cc(C(=O)[C@@H]3CN(C4CCC4)CC[C@@H]3CC(C)C)ccc2c1` (single isomer, unassigned) [Example 144a, (1-cyclobutyl-4-isobutylpiperidin-3-yl)(6-methoxynaphthalen-2-yl)methanone] returned an IC50 of 5.6 nM.

The values above are taken from patent US10280149B2, “Therapeutic compounds and uses thereof” (GENENTECH, INC., priority 2015, dated 2019).
